The source of these data is US7241783B2, “Thrombopoietin mimetics” (SmithKline Beecham Corporation, priority 2000, dated 2007).

pEC50: −log10 of the molar value. Read-outs that look alike come from different tables or passages of the source.

The target in one experiment is T1, TPO receptor (Homo sapiens, UniProt P40238).
T1 construct: expressed in transfected cells; host or cells: murine BaF3 cells (TPO-responsive line)
T1 sequence (P40238 26-635): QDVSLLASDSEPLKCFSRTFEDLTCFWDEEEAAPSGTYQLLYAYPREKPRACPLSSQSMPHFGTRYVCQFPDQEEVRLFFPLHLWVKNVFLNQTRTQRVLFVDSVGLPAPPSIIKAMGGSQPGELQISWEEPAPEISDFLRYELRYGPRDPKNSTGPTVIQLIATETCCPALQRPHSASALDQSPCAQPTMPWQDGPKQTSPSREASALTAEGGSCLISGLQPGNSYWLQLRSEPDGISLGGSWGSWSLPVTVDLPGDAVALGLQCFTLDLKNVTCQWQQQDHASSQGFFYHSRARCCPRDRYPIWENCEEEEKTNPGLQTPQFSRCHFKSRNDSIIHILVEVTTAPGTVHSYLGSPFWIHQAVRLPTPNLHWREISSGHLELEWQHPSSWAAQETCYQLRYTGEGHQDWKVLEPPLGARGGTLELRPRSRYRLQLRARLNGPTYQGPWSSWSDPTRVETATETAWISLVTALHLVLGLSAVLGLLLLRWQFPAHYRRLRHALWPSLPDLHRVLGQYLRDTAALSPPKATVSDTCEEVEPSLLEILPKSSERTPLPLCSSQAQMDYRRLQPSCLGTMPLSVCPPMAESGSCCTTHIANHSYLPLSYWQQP
Briefly: Luciferase assay in TPO-responsive BaF3 cell line. It counts as cell-based, murine. As to conditions: at a concentration of 3 uM. The protocol: Compounds of the present invention were tested for potency as mimetics of the TPO receptor in a Luciferase assay such as described in Lamb, et al., Nucleic Acids Research 23: 3283–3289 (1995) and Seidel, et al., Proc. Natl. Acad. Sci., USA 92: 3041–3045 (1995) by substituting a TPO-responsive BaF3 cell line (Vigon et al. Proc. Natl. Acad. Sci. USA 1992, 89, 5640–5644) for the HepG2 cells utilized therein. The murine BaF3 cells express TPO receptors and closely match the pattern of STAT (signal transducers and activators of transcription) activation observed in primary murine and human bone marrow cells in response to TPO.

In experiment [1] the test system is BAF-3/TPO-responsive human cell lines. Briefly: proliferation of BAF-3/TPO-responsive human cell lines (Table 1). It counts as cell-based.

Turning to `Cc1ccc(-c2cccc(C=NNC(=S)Nc3cccc(C(=O)O)c3)c2O)cc1C` [Example 15.8, 4-(3-carboxyphenyl)-1-[3-(3,4-dimethylphenyl)-2-hydroxybenzylidene]-3-thiosemicarbazide], the “activation, % of control (control is the maximal response to TPO)” value on TPO receptor was “about 20 % of control”. The same compound showed an Efficacy/%TPOmax in experiment [1] of 90 %TPOmax. For the same compound, in experiment [1] (BaF3), the pEC50 was 7.52.

The compound `O=C(O)c1ccc(NC(=S)NN=Cc2cccc(-c3cccc(C(F)(F)F)c3)c2O)cc1` [Example 15.9, 4-(4-carboxyphenyl)-1-[2-hydroxy-3-(3-trifluoromethylphenyl)benzylidene]-3-thiosemicarbazide] came in with an Efficacy/%TPOmax in experiment [1] of 100 %TPOmax. For the same compound, in experiment [1] (BaF3), the pEC50 is 7.70.

Take `O=C(O)c1cccc(NC(=S)NN=Cc2cccc(-c3cccc(C(F)(F)F)c3)c2O)c1` [Example 15.10, 4-(3-carboxyphenyl)-1-[2-hydroxy-3-(3-trifluoromethylphenyl)benzylidene]-3-3-thiosemicarbazide]: in experiment [1], the pEC50 was 7.30 and the Efficacy/%TPOmax turned out to be 100 %TPOmax.

In experiment [1], `O=C(O)c1cccc(NC(=S)NN=Cc2cccc(-c3ccc(Cl)cc3)c2O)c1` [Example 15.12, 4-(3-carboxyphenyl)-1-[3-(4-chlorophenyl)-2-hydroxybenzylidene]-3-thiosemicarbazide] registered an Efficacy/%TPOmax of 85 %TPOmax. Moreover, the pEC50 in experiment [1] (BaF3) was 7.22.

With `Cc1ccc(-n2nc(C)c(C=NNC(=S)Nc3ccc(C(=O)O)cc3)c2O)cc1` [Example 15.29, 4-(4-carboxyphenyl)-1-[{5-hydroxy-3-methyl-1-(4-methylphenyl)pyrazol-4-yl}methylene]-3-thiosemicarbazide], the Efficacy/%TPOmax in experiment [1] stood at 100 %TPOmax. In experiment [1] (BaF3), this compound gave a pEC50 of 7.52.

Take `Cc1ccc(-n2nc(C)c(C=NNC(=S)Nc3cccc(C(=O)O)c3)c2O)cc1` [Example 15.30, 4-(3-carboxyphenyl)-1-[{5-hydroxy-3-methyl-1-(4-methylphenyl)pyrazol-4-yl}methylene]-3-thiosemicarbazide]: the Efficacy/%TPOmax in experiment [1] was 100 %TPOmax. Besides, the pEC50 in experiment [1] (BaF3) was 7.52.

`Cc1nn(-c2cccc(Cl)c2)c(O)c1C=NNC(=S)Nc1ccc(C(=O)O)cc1` [Example 15.31, 4-(4-carboxyphenyl)-1-[{1-(3-chlorophenyl)-5-hydroxy-3-methylpyrazol-4-yl}methylene]-3-thiosemicarbazide] gave an Efficacy/%TPOmax in experiment [1] of 100 %TPOmax. This compound had a pEC50 in experiment [1] (BaF3) of 7.52.
